Measurements as given in US11224224B2, “Thiobenzoimidazole as fungicides” (REDAG CROP PROTECTION LTD, priority 2017, dated 2022).
Values after ≈ are worked out from the molar mass of the structure shown.

Experiments:
Assay type in all cases: cell-based
oomycete plant pathogens = assay: Fungicidal activity testing, overall summary; details: summary statement on Table 1
Method: The activity of compounds of the invention was assessed by testing against certain oomycete plant pathogens and representative data are presented in Table 1.

Phytophthora cactorum = assay: 96 well plate test (amended agar with spores); details: 96 well plate, 20, 2, 0.2 and 0.02 ppm, 1% PDA, 2 to 3 days (cells marked *), read-out: EC50 Phytophthora spp. (*96 well plate format vs. Phytophthora cactorum)
Method: Compounds were screened in 96 well plates with 10 compounds per plate. Each compound was screened using agar amended to 20, 2, 0.2 and 0.02 ppm, with Proline at 50 and 10 ppm and 0.2% DMSO used as controls. Each test concentration and standard was replicated twice on a plate. Compounds were screened against Phytophthora cactorum. The agar used in the test is a 1% PDA. 1000 spores/mL agar were added to the appropriate agar.
A ×10 stock solution in 2% DMSO was produced for each dose i.e. 200, 20, 2 and 0.2 ppm, and 10 μl of this added to the appropriate wells on the plate. An equivalent amount of 2% DMSO and Proline stock at 500 and 100 ppm were added for the controls. To each well 90 μl of the appropriate agar spore suspension was added to give the required final well concentrations. Plates were incubated at room temperature (18° C.) and assessed after 2 to 3 days. The amount of pathogen growth in each well was compared to the DMSO controls and an EC50 concentration was calculated. The results are provided in Table 1 in which G represents an EC50 above 20 ppm, F represents an EC50 of 1-20 ppm and E represents an EC50 less than 1 ppm.

Pythium ultimum [1] = assay: Amended agar assay (PDA), colony growth; details: Globisporangium ultimum; 20 ppm in amended PDA, 18° C., reduction in colony growth vs control plate
Method: Testing was carried out on potato dextrose agar (PDA) amended with each compound at a test concentration of 20 ppm. Amended agar was poured into three replicate 9 cm petri dishes. Each replicate dish was inoculated in the centre with a 5 mm agar plug taken from the leading edge of a culture aged between 2 and 7 days old; the age of the culture was dependant on the growth rate of the pathogen being tested. The test pathogens were Pythium ultimum and Phytophthora cinnamomi. Plates were incubated at 18° C. and the diameter of each colony measured before growth on the fastest growing plate reached the plate edge. This varied between 2 and 7 days depending on the growth rate of test pathogens. The % reduction in colony growth compared to the control plate was calculated for each pathogen. The results are provided in Table 1, in which D represents no control detected at this concentration; C represents up to 50% control; B from 50 to 99% control; and A represents a control of greater than 99%, i.e. no detectable colony growth.
Alternatively, or in addition, the same assay was conducted at descending test concentrations with 5-fold dilutions typically down to 0.032 ppm though sometimes as low as 0.00026 ppm, and an EC50 (the concentration at which 50% control would be achieved) was determined. The results are provided in Table 1 in which G represents an EC50 above 20 ppm, F represents an EC50 of 1-20 ppm and E represents and EC50 less than 1 ppm.

Pythium ultimum [2] = assay: Amended agar assay (PDA), colony growth; parameters: key to % control Pythium ultimum 2 ppm: D: no control detected at this concentration; C: up to 50% control; B: from 50 to 99% control; A: a control of greater than 99%, i.e. no detectable colony growth; details: for inhibition of growth at 2 ppm: Globisporangium ultimum, read-out: % control Pythium ultimum 2 ppm

EC50 (Phytophthora cactorum) | SMILES | control over the pathogens tested (oomycete plant pathogens) | inhibition of growth at 20 ppm (Pythium ultimum [1]) | inhibition of growth at 2 ppm (Pythium ultimum [2]) | % control Pythium ultimum 2 ppm (Pythium ultimum [2])
1 to 20 µg/mL (≈ 2.46 to 49.2 µM) | Cn1nnnc1-n1c(SCc2cccc(NC(=O)C3CC3)n2)nc2ccccc21 [Example 35] |  |  | 50 to 99% | 
> 20 µg/mL | CCC(=O)Nc1cccc(CSc2nc3ccccc3n2-c2nnnn2C)n1 [Example 36] |  |  | 50 to 99% | 
> 20 µg/mL | Cn1nnnc1-n1c(SCc2ccncn2)nc2ccccc21 [Example 43] |  |  |  | D
> 20 µg/mL | Cn1nnnc1-n1c(SCc2cccc(NC(=O)C(F)(F)Oc3ccccc3)n2)nc2ccc(I)cc21 [Example 44] |  |  |  | D
> 20 µg/mL | Clc1cncc(Cl)c1-n1c(SCc2ccccn2)nc2ccccc21 [Example 51] |  |  |  | D
> 20 µg/mL | CCNC(=O)CSc1nc2ccccc2n1-c1nnnn1C [Example 55] |  |  | < 50% | 
> 20 µg/mL | Cn1nnnc1-n1c(SCC(=O)N2CCOCC2)nc2ccccc21 [Example 56] |  |  | < 50% | 
> 20 µg/mL | Cn1nnnc1-n1c(SCC(=O)Nc2ccccc2)nc2ccccc21 [Example 57] |  |  | < 50% | 
> 20 µg/mL | CN(C)C(=O)CSc1nc2ccccc2n1-c1nnnn1C [Example 58] |  |  | < 50% | 
> 20 µg/mL | Cn1nnnc1-n1c(Sc2ncccn2)nc2ccccc21 [Example 60, 1-(1-Methyl-1H-tetrazol-5-yl)-2-(pyrimidin-2-ylthio)-1H-benzo[d]imidazole] |  |  | < 50% | 
> 20 µg/mL | Cn1nnnc1-n1c(Sc2ccccn2)nc2ccccc21 [Example 61, 1-(1-Methyl-1H-tetrazol-5-yl)-2-(pyridin-2-ylthio)-1H-benzo[d]imidazole] |  |  |  | D
> 20 µg/mL | C#Cc1ccc2nc(SCc3ccccn3)n(-c3nnnn3C)c2c1 [Example 64, 6-Ethynyl-1-(1-methyl-1H-tetrazol-5-yl)-2-((pyridin-2-ylmethyl)thio)-1H-benzo[d]imidazole] |  |  | < 50% | 
> 20 µg/mL | C#Cc1ccc2nc(SCc3cccc(NC(=O)C(F)(F)Oc4ccccc4)n3)n(-c3nnnn3C)c2c1 [Example 65, N-(6-(((6-Ethynyl-1-(1-methyl-1H-tetrazol-5-yl)-1H-benzo[d]imidazol-2-yl)thio)methyl)pyridin-2-yl)-2,2-difluoro-2-phenoxyacetamide] |  |  | 50 to 99% | 
> 20 µg/mL | Cn1nnnc1-n1c(SCc2nccc3ccccc23)nc2ccccc21 [Example 68] |  |  | 50 to 99% | 
> 20 µg/mL | COc1cccnc1CSc1nc2ccccc2n1-c1nnnn1C [Example 71] |  |  | < 50% | 
> 20 µg/mL | Cn1nnnc1-n1c(SCc2cccc(C#N)n2)nc2ccccc21 [Example 72] |  |  |  | D
> 20 µg/mL | Cn1nnnc1-n1c(SCc2ccc(C#N)cn2)nc2ccccc21 [Example 74] |  |  | < 50% | 
> 20 µg/mL | Cn1nnnc1-n1c(SCc2ncc(Cl)cc2Cl)nc2ccccc21 [Example 77] |  |  | 50 to 99% | 
> 20 µg/mL | Cn1nnnc1-n1c(SCc2cccc(NC(=O)C3CC3)n2)nc2cccc(Cl)c21 [Example 81] |  |  |  | 
> 20 µg/mL | Cn1nnnc1-n1c(SCc2ccccn2)nc2cccc(Cl)c21 [Example 82] |  |  | 50 to 99% | 
> 20 µg/mL | COc1cc(F)cc2c1nc(SCc1ccccn1)n2-c1nnnn1C [Example 85] |  |  | > 99% | 

SMILES | EC50 (Phytophthora cactorum) | control over the pathogens tested (oomycete plant pathogens) | inhibition of growth at 20 ppm (Pythium ultimum [1]) | inhibition of growth at 2 ppm (Pythium ultimum [2]) | % control Pythium ultimum 2 ppm (Pythium ultimum [2])
Cn1nnnc1-n1c(SCc2nccs2)nc2ccccc21 [Example 34] | 1 to 20 µg/mL (≈ 3.04 to 60.7 µM) | good to excellent control | > 99% | 50 to 99% | 
Cc1ccnc(CSc2nc3ccccc3n2-c2nnnn2C)c1 [Example 37] | 1 to 20 µg/mL (≈ 2.96 to 59.3 µM) | good to excellent control | > 99% | 50 to 99% | 
COc1c(C)cnc(CSc2nc3ccccc3n2-c2nnnn2C)c1C [Example 38] | 1 to 20 µg/mL (≈ 2.62 to 52.4 µM) | good to excellent control |  | > 99% | 
COc1ccnc(CSc2nc3ccccc3n2-c2nnnn2C)c1OC [Example 39] | 1 to 20 µg/mL (≈ 2.61 to 52.2 µM) | good to excellent control |  | > 99% | 
COCCCOc1ccnc(CSc2nc3ccccc3n2-c2nnnn2C)c1C [Example 40] | 1 to 20 µg/mL (≈ 2.35 to 47 µM) | good to excellent control |  | 50 to 99% | 
COc1ccnc(CSc2nc3ccccc3n2-c2nnnn2C)c1 [Example 42] | 1 to 20 µg/mL (≈ 2.83 to 56.6 µM) | good to excellent control |  | > 99% | 
Cn1nnnc1-n1c(SCc2cccc(NC(=O)COc3ccccc3)n2)nc2ccc(F)cc21 [Example 47] | < 1 µg/mL | good to excellent control |  | > 99% | 
Cn1nnnc1-n1c(SCc2nccs2)nc2ccc(F)cc21 [Example 48] | 1 to 20 µg/mL (≈ 2.88 to 57.6 µM) | good to excellent control |  | > 99% | 
Cn1nnnc1-n1c(SCc2cccc(NC(=O)C3CC3)n2)nc2c(Cl)cccc21 [Example 63, N-(6-(((4-Chloro-1-(1-methyl-1H-tetrazol-5-yl)-1H-benzo[d]imidazol-2-yl)thio)methyl)pyridin-2-yl)cyclopropanecarboxamide] | 1 to 20 µg/mL (≈ 2.27 to 45.4 µM) | good to excellent control |  | > 99% | 
COc1ccnc(CSc2nc3cc(Cl)ccc3n2-c2nnnn2C)c1 [Example 66] | 1 to 20 µg/mL (≈ 2.58 to 51.6 µM) | good to excellent control |  | > 99% | 
Cn1nnnc1-n1c(SCc2ccccn2)nc2cc(Cl)ccc21 [Example 67] | 1 to 20 µg/mL (≈ 2.79 to 55.9 µM) | good to excellent control |  | > 99% | 
Cc1ccc(CSc2nc3ccccc3n2-c2nnnn2C)nc1 [Example 69] | 1 to 20 µg/mL (≈ 2.96 to 59.3 µM) | good to excellent control |  | > 99% | 
Cn1nnnc1-n1c(SCc2cc(C#N)ccn2)nc2ccccc21 [Example 70] | 1 to 20 µg/mL (≈ 2.87 to 57.4 µM) | good to excellent control |  | > 99% | 
COc1ccc(CSc2nc3ccccc3n2-c2nnnn2C)nc1 [Example 73] | 1 to 20 µg/mL (≈ 2.83 to 56.6 µM) | good to excellent control |  | > 99% | 
Cn1nnnc1-n1c(SCc2ccc(Br)cn2)nc2ccccc21 [Example 75] | 1 to 20 µg/mL (≈ 2.49 to 49.7 µM) | good to excellent control |  | > 99% | 
Cn1nnnc1-n1c(SCc2ccc(Cl)cn2)nc2ccccc21 [Example 76] | 1 to 20 µg/mL (≈ 2.79 to 55.9 µM) | good to excellent control |  | > 99% | 
Cn1nnnc1-n1c(SCc2cc(C(F)(F)F)ccn2)nc2ccccc21 [Example 78] | 1 to 20 µg/mL (≈ 2.56 to 51.1 µM) | good to excellent control |  | > 99% | 
Cn1nnnc1-n1c(SCc2cccc(NC(=O)OC(C)(C)C)n2)nc2cccc(Cl)c21 [Example 83] | 1 to 20 µg/mL (≈ 2.11 to 42.3 µM) | good to excellent control |  | 50 to 99% | 
COc1cc(F)cc2c1nc(SCc1cccc(NC(=O)OC(C)(C)C)n1)n2-c1nnnn1C [Example 84] | 1 to 20 µg/mL (≈ 2.06 to 41.1 µM) | good to excellent control |  | > 99% | 
Cn1nnnc1-n1c(SCc2cccc(NCc3ccccc3)n2)nc2ccccc21 [Example 88, N-Benzyl-6-(((1-(1-methyl-1H-tetrazol-5-yl)-1H-benzo[d]imidazol-2-yl)thio)methyl)pyridin-2-amine] | < 1 µg/mL | good to excellent control |  | > 99% | 
